Experimental data from ChEMBL document CHEMBL1772971, “Novel 18F-labeled benzofuran derivatives with improved properties for positron emission tomography (PET) imaging of β-amyloid plaques in Alzheimer's brains” (J Med Chem, 2011).
Calls of active or inactive are those of the source. The calls are words filed in the database; no cut-off is given here.

Columns and labels:
[1] = Displacement of [125I]IMPY from amyloid beta (1 to 42) after 3 hrs by gamma counting
[2] = biological target: Amyloid-beta precursor protein (Homo sapiens) (UniProt P05067); assay: Binding affinity to beta amyloid plaques in human Alzheimer's disease brain at 444 kBq/50 uL after 1 hr by autoradiography; details: tested as the 18F-labelled form
Chain of Amyloid-beta precursor protein (Homo sapiens) (P05067 whole entry): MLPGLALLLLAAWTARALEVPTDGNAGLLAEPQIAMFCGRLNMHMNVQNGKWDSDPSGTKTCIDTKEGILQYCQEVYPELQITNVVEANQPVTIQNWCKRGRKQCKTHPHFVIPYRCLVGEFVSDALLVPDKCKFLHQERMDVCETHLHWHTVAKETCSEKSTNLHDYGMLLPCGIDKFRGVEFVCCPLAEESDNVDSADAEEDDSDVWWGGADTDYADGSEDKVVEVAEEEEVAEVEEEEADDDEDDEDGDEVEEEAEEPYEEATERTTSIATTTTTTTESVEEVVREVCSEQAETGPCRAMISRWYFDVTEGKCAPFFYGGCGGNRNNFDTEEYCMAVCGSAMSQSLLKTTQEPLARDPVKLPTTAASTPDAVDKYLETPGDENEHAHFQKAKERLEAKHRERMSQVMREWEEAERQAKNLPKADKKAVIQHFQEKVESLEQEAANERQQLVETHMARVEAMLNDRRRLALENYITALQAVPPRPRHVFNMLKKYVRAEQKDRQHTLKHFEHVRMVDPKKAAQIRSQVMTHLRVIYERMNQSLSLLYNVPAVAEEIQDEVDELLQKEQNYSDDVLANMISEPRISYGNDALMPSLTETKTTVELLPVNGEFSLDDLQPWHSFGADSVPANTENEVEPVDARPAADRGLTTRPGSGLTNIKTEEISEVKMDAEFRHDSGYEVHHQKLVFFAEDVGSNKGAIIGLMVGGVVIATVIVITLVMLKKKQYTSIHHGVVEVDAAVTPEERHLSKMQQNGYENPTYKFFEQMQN

Blood [3] = assay: Biodistribution in ddY mouse blood at 185 to 370 kBq, iv after 2 mins by gamma counting; assay type: ADME, organism-based; details: in vivo
Brain [4] = assay: Biodistribution in ddY mouse brain at 185 to 370 kBq, iv after 2 mins by gamma counting; assay type: ADME, organism-based; details: in vivo
Bone [5] = assay: Biodistribution in ddY mouse bone at 185 to 370 kBq, iv after 2 mins by gamma counting; assay type: ADME, organism-based, Bone element; details: in vivo
Liver [6] = assay: Biodistribution in ddY mouse liver at 185 to 370 kBq, iv after 2 mins by gamma counting; assay type: ADME, organism-based; details: in vivo
Kidney [7] = assay: Biodistribution in ddY mouse kidney at 185 to 370 kBq, iv after 2 mins by gamma counting; assay type: ADME, organism-based; details: in vivo
Intestine [8] = assay: Biodistribution in ddY mouse intestine at 185 to 370 kBq, iv after 2 mins by gamma counting; assay type: ADME, organism-based; details: in vivo
Spleen [9] = assay: Biodistribution in ddY mouse spleen at 185 to 370 kBq, iv after 2 mins by gamma counting; assay type: ADME, organism-based; details: in vivo
Lung [10] = assay: Biodistribution in ddY mouse lung at 185 to 370 kBq, iv after 2 mins by gamma counting; assay type: ADME, organism-based; details: in vivo
Pancreas [11] = assay: Biodistribution in ddY mouse pancreas at 185 to 370 kBq, iv after 2 mins by gamma counting; assay type: ADME, organism-based; details: in vivo
Heart [12] = assay: Biodistribution in ddY mouse […] at 185 to 370 kBq, iv after 2 mins by gamma counting; assay type: ADME, organism-based; details: in vivo
Stomach [13] = assay: Biodistribution in ddY mouse stomach assessed per organ at 185 to 370 kBq, iv after 2 mins by gamma counting; assay type: ADME, organism-based; details: in vivo
Blood [14] = assay: Biodistribution in ddY mouse blood at 185 to 370 kBq, iv after 10 mins by gamma counting; assay type: ADME, organism-based; details: in vivo
Brain [15] = assay: Biodistribution in ddY mouse brain at 185 to 370 kBq, iv after 10 mins by gamma counting; assay type: ADME, organism-based; details: in vivo
Bone [16] = assay: Biodistribution in ddY mouse bone at 185 to 370 kBq, iv after 10 mins by gamma counting; assay type: ADME, organism-based, Bone element; details: in vivo
Liver [17] = assay: Biodistribution in ddY mouse liver at 185 to 370 kBq, iv after 10 mins by gamma counting; assay type: ADME, organism-based; details: in vivo
Kidney [18] = assay: Biodistribution in ddY mouse kidney at 185 to 370 kBq, iv after 10 mins by gamma counting; assay type: ADME, organism-based; details: in vivo
Intestine [19] = assay: Biodistribution in ddY mouse intestine at 185 to 370 kBq, iv after 10 mins by gamma counting; assay type: ADME, organism-based; details: in vivo
Spleen [20] = assay: Biodistribution in ddY mouse spleen at 185 to 370 kBq, iv after 10 mins by gamma counting; assay type: ADME, organism-based; details: in vivo
Lung [21] = assay: Biodistribution in ddY mouse lung at 185 to 370 kBq, iv after 10 mins by gamma counting; assay type: ADME, organism-based; details: in vivo
Pancreas [22] = assay: Biodistribution in ddY mouse pancreas at 185 to 370 kBq, iv after 10 mins by gamma counting; assay type: ADME, organism-based; details: in vivo
Heart [23] = assay: Biodistribution in ddY mouse […] at 185 to 370 kBq, iv after 10 mins by gamma counting; assay type: ADME, organism-based; details: in vivo
Stomach [24] = assay: Biodistribution in ddY mouse stomach assessed per organ at 185 to 370 kBq, iv after 10 mins by gamma counting; assay type: ADME, organism-based; details: in vivo
Blood [25] = assay: Biodistribution in ddY mouse blood at 185 to 370 kBq, iv after 30 mins by gamma counting; assay type: ADME, organism-based; details: in vivo, 0.5 h
Brain [26] = assay: Biodistribution in ddY mouse brain at 185 to 370 kBq, iv after 30 mins by gamma counting; assay type: ADME, organism-based; details: in vivo, 0.5 h
Bone [27] = assay: Biodistribution in ddY mouse bone at 185 to 370 kBq, iv after 30 mins by gamma counting; assay type: ADME, organism-based, Bone element; details: in vivo, 0.5 h
Liver [28] = assay: Biodistribution in ddY mouse liver at 185 to 370 kBq, iv after 30 mins by gamma counting; assay type: ADME, organism-based; details: in vivo, 0.5 h
Kidney [29] = assay: Biodistribution in ddY mouse kidney at 185 to 370 kBq, iv after 30 mins by gamma counting; assay type: ADME, organism-based; details: in vivo, 0.5 h
Intestine [30] = assay: Biodistribution in ddY mouse intestine at 185 to 370 kBq, iv after 30 mins by gamma counting; assay type: ADME, organism-based; details: in vivo, 0.5 h
Spleen [31] = assay: Biodistribution in ddY mouse spleen at 185 to 370 kBq, iv after 30 mins by gamma counting; assay type: ADME, organism-based; details: in vivo, 0.5 h
Lung [32] = assay: Biodistribution in ddY mouse lung at 185 to 370 kBq, iv after 30 mins by gamma counting; assay type: ADME, organism-based; details: in vivo, 0.5 h
Pancreas [33] = assay: Biodistribution in ddY mouse pancreas at 185 to 370 kBq, iv after 30 mins by gamma counting; assay type: ADME, organism-based; details: in vivo, 0.5 h
Heart [34] = assay: Biodistribution in ddY mouse […] at 185 to 370 kBq, iv after 30 mins by gamma counting; assay type: ADME, organism-based; details: in vivo, 0.5 h
Stomach [35] = assay: Biodistribution in ddY mouse stomach assessed per organ at 185 to 370 kBq, iv after 30 mins by gamma counting; assay type: ADME, organism-based; details: in vivo, 0.5 h
Blood [36] = assay: Biodistribution in ddY mouse blood at 185 to 370 kBq, iv after 60 mins by gamma counting; assay type: ADME, organism-based; details: in vivo, 1 h
Brain [37] = assay: Biodistribution in ddY mouse brain at 185 to 370 kBq, iv after 60 mins by gamma counting; assay type: ADME, organism-based; details: in vivo, 1 h
Bone [38] = assay: Biodistribution in ddY mouse bone at 185 to 370 kBq, iv after 60 mins by gamma counting; assay type: ADME, organism-based, Bone element; details: in vivo, 1 h
Liver [39] = assay: Biodistribution in ddY mouse liver at 185 to 370 kBq, iv after 60 mins by gamma counting; assay type: ADME, organism-based; details: in vivo, 1 h
Kidney [40] = assay: Biodistribution in ddY mouse kidney at 185 to 370 kBq, iv after 60 mins by gamma counting; assay type: ADME, organism-based; details: in vivo, 1 h
Intestine [41] = assay: Biodistribution in ddY mouse intestine at 185 to 370 kBq, iv after 60 mins by gamma counting; assay type: ADME, organism-based; details: in vivo, 1 h
Spleen [42] = assay: Biodistribution in ddY mouse spleen at 185 to 370 kBq, iv after 60 mins by gamma counting; assay type: ADME, organism-based; details: in vivo, 1 h
Lung [43] = assay: Biodistribution in ddY mouse lung at 185 to 370 kBq, iv after 60 mins by gamma counting; assay type: ADME, organism-based; details: in vivo, 1 h
Pancreas [44] = assay: Biodistribution in ddY mouse pancreas at 185 to 370 kBq, iv after 60 mins by gamma counting; assay type: ADME, organism-based; details: in vivo, 1 h
Heart [45] = assay: Biodistribution in ddY mouse […] at 185 to 370 kBq, iv after 60 mins by gamma counting; assay type: ADME, organism-based; details: in vivo, 1 h
Stomach [46] = assay: Biodistribution in ddY mouse stomach assessed per organ at 185 to 370 kBq, iv after 60 mins by gamma counting; assay type: ADME, organism-based; details: in vivo, 1 h
Brain [47] = assay: Ratio of drug level in brain after 2 mins to brain after 60 mins in ddY mouse […] at 185 to 370 kBq, iv; assay type: ADME, organism-based; details: in vivo
Brain [48] = assay: Biodistribution in Tg2576 transgenic mouse brain at 11.1 MBq, iv after 30 mins by autoradiography; assay type: ADME, organism-based; details: in vivo, 0.5 h
Brain [49] = assay: Biodistribution in wild type mouse brain at 11.1 MBq, iv after 30 mins by autoradiography; assay type: ADME, organism-based; details: in vivo, 0.5 h

CNc1ccc(-c2cc3cc(OCCOCCOCCF)ccc3o2)cn1
Ki [1]: 2.41 nM | Activity [2]: Active

CNc1ccc(-c2cc3cc(OCCOCCOCC[18F])ccc3o2)cn1
Drug uptake (Blood [3]): 4.96 % ID/g | Drug uptake (Brain [4]): 7.38 % ID/g | Drug uptake (Bone [5]): 2.65 % ID/g | Drug uptake (Liver [6]): 16.8 % ID/g | Drug uptake (Kidney [7]): 11.9 % ID/g | Drug uptake (Intestine [8]): 4.24 % ID/g | Drug uptake (Spleen [9]): 2.91 % ID/g | Drug uptake (Lung [10]): 5.68 % ID/g | Drug uptake (Pancreas [11]): 5.14 % ID/g | Drug uptake (Heart [12]): 5.19 % ID/g | Drug uptake (Stomach [13]): 3.73 %ID | Drug uptake (Blood [14]): 3.02 % ID/g | Drug uptake (Brain [15]): 4.86 % ID/g | Drug uptake (Bone [16]): 1.63 % ID/g | Drug uptake (Liver [17]): 17.5 % ID/g | Drug uptake (Kidney [18]): 6.22 % ID/g | Drug uptake (Intestine [19]): 8.39 % ID/g | Drug uptake (Spleen [20]): 2.15 % ID/g | Drug uptake (Lung [21]): 3.12 % ID/g | Drug uptake (Pancreas [22]): 2.68 % ID/g | Drug uptake (Heart [23]): 2.51 % ID/g | Drug uptake (Stomach [24]): 7.55 %ID | Drug uptake (Blood [25]): 2.66 % ID/g | Drug uptake (Brain [26]): 4.03 % ID/g | Drug uptake (Bone [27]): 1.79 % ID/g | Drug uptake (Liver [28]): 19.2 % ID/g | Drug uptake (Kidney [29]): 7.83 % ID/g | Drug uptake (Intestine [30]): 24.1 % ID/g | Drug uptake (Spleen [31]): 3.14 % ID/g | Drug uptake (Lung [32]): 4.34 % ID/g | Drug uptake (Pancreas [33]): 4.91 % ID/g | Drug uptake (Heart [34]): 3.59 % ID/g | Drug uptake (Stomach [35]): 18.8 %ID | Drug uptake (Blood [36]): 2.42 % ID/g | Drug uptake (Brain [37]): 3.15 % ID/g | Drug uptake (Bone [38]): 1.72 % ID/g | Drug uptake (Liver [39]): 8.71 % ID/g | Drug uptake (Kidney [40]): 3.7 % ID/g | Drug uptake (Intestine [41]): 30.9 % ID/g | Drug uptake (Spleen [42]): 2.24 % ID/g | Drug uptake (Lung [43]): 2.88 % ID/g | Drug uptake (Pancreas [44]): 2.55 % ID/g | Drug uptake (Heart [45]): 2.6 % ID/g | Drug uptake (Stomach [46]): 22.5 %ID | Ratio (Brain [47]): 2.34 | Drug uptake (Brain [48]): Active | Drug uptake (Brain [49]): Not Active

CNc1ccc(/C=C/c2ccc(OCCOCCOCC[18F])cc2)cc1 [FLORBETABEN F18]
Ratio (Brain [47]): 4.8
